Data: PubChem BioAssay (NCI)
Values joined by “and” are separate entries in the source; they are usually repeats but may differ in a detail not shown here. Equal values may be shown once.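 These data come from cells grown in 96-well plates and exposed to compound for 48 hours at five concentrations. GI50 marks 50% less growth. TGI is the concentration that stops growth completely.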 *1 amine or outer side, *2 acyl side, *3 side chain or, on linkers, in order; H or OH if unused. Where a SMILES comes first, the peptide text is derived from it. [ ]: non-standard residue; d: D form. X56 = CC[C@H](C)[C@H](OC(=O)[C@@H](C)[C@@H](CC)N[*:1])C(=O)[*:2]; X32 = C[C@H](N[*:1])C(=O)C(C)(C)C(=O)[*:2]; NMeY = CN[C@@H](Cc1ccc(O)cc1)C(=O)O; NMeL = CN[C@@H](CC(C)C)C(=O)O; NMeV = CN[C@H](C(=O)O)C(C)C

Experiments:
Experiment in all cases: inhibition of tumour cell growth, NCI panel, 48 h
MOLT-4 leukemia = system: MOLT-4 leukemia
HCC-2998 colon = system: HCC-2998 colon
SK-OV-3 ovarian = system: SK-OV-3 ovarian
SF-295 CNS = system: SF-295 CNS
RPMI-8226 leukemia = system: RPMI-8226 leukemia
IGROV1 ovarian = system: IGROV1 ovarian
NCI-H522 lung = system: NCI-H522 lung
SF-539 CNS = system: SF-539 CNS
DU-145 prostate = system: DU-145 prostate
BT-549 breast = system: BT-549 breast

| SMILES | TGI (MOLT-4 leukemia) [µM] | TGI (HCC-2998 colon) [µM] | TGI (SK-OV-3 ovarian) [µM] | TGI (SF-295 CNS) | TGI (RPMI-8226 leukemia) [µM] | TGI (IGROV1 ovarian) | TGI (NCI-H522 lung) [µM] | TGI (SF-539 CNS) | TGI (DU-145 prostate) [µM] | TGI (BT-549 breast) [µM] | GI50 (MOLT-4 leukemia) [µM] | GI50 (HCC-2998 colon) [µM] | GI50 (SK-OV-3 ovarian) [µM] | GI50 (DU-145 prostate) [µM] | GI50 (RPMI-8226 leukemia) [µM] | GI50 (IGROV1 ovarian) [µM] | GI50 (NCI-H522 lung) [µM] | GI50 (BT-549 breast) [µM] | GI50 (SF-539 CNS) [µM] | GI50 (SF-295 CNS) [µM] |
| --- | --- | --- | --- | --- | --- | --- | --- | --- | --- | --- | --- | --- | --- | --- | --- | --- | --- | --- | --- | --- |
| NNC(=O)/C(NC(=O)c1ccccc1)=C(\N)c1ccc(Cl)cc1 | > 100 | > 100 | > 100 | > 100 µM | > 100 | > 100 µM | > 100 | > 100 µM |  |  |  |  |  |  |  |  |  |  |  |  |
| O=c1c2ccccc2nc(-c2cccc(Cl)c2)n1NCC1(O)OCC(O)C(O)C1O (centres undefined) | > 100 |  | > 100 | > 100 µM | > 100 |  | > 100 | > 100 µM |  |  |  |  |  |  |  |  |  |  |  |  |
| NC(CC1=CCC=CC1)C(=O)O (centres undefined) | > 100 | > 100 | > 100 | > 100 µM | > 100 | > 100 µM |  |  | > 100 | > 100 |  |  |  |  |  |  |  |  |  |  |
| COc1cc2c(c(OC)c1OC)-c1ccc(OC)c(=O)cc1[C@@H](N(C)C=O)CC2 | > 100 | > 100 |  | 0.0365 µM | > 100 | > 100 µM | 0.0438 | 0.0247 µM |  |  |  |  |  |  |  |  |  |  |  |  |
| OCc1ccc(N(CCN2CCCC2)Cc2ccc(F)cc2)cc1Cl | 62.7 | 23.8 | 31 |  | 47.4 | 16.8 µM | 34.4 | 31.2 µM | 39.7 | 86.8 | 25.2 | 10.7 | 7.88 | 17.1 | 18.5 | 3.27 | 16.8 | 24.8 | 16.4 |  |
| COc1cc(/C=C2\C(=O)Nc3cccc(Cl)c32)cc(OC)c1OC | 1.34 | > 100 | > 100 | > 100 µM | > 100 | > 100 µM | > 100 | > 100 µM |  | > 100 | 0.142 | > 100 | > 100 |  | 53.7 | > 100 | > 100 | > 100 | > 100 | > 100 |
| O=c1c2cccnc2ncn1CCN1CCCC1 | > 100 | > 100 | > 100 | > 100 µM |  | > 100 µM | > 100 | > 100 µM |  |  |  |  |  |  |  |  |  |  |  |  |
| Cc1cc(N(CCCl)CCCl)ccc1/C=N/NC(=O)Cc1cc(=O)oc2cc(O)ccc12 | 50.4 | 72 |  | 50.8 µM | 57.5 | 40.7 µM | 31.5 | 40.7 µM | > 100 | 34.7 |  |  |  |  |  |  |  |  |  |  |
| c1ccc(COC2(OCc3ccccc3)CC3OC2C2NN=NC32)cc1 (centres undefined) | 37.9 | > 10 | > 100 | 62.4 µM | 41.9 | 76.3 µM |  | 43.5 µM |  |  |  |  |  |  |  |  |  |  |  |  |
| O=[N+]([O-])c1ccc2nc3ccccc3cc2c1 |  | 3.12 | 20.7 |  |  | 6.8 µM | 9.79 | 6.82 µM | 8.12 | 21.7 |  |  |  |  |  |  |  |  |  |  |
| Cc1ccc(Oc2ccc([N+](=O)[O-])cc2[N+](=O)[O-])c(C)c1 | 79.4 | > 100 | > 100 | > 100 µM | 97.7 | > 100 µM |  | > 100 µM |  |  |  |  |  |  |  |  |  |  |  |  |
| Cc1cccc(C)c1NC(=O)CCc1n[nH]c(=S)o1 | > 100 | > 100 | > 100 | > 100 µM | 56.7 | > 100 µM | > 100 | > 100 µM |  |  |  |  |  |  |  |  |  |  |  |  |
| C=CCn1cc(C(=O)NC(=O)NCCCCCOC(=O)CCCCCCCCCCC(=O)OCCCCCNC(=O)NC(=O)c2cn(CC=C)c(=O)n(C)c2=O)c(=O)n(C)c1=O | > 100 | > 100 | > 100 |  | > 100 | > 100 µM | > 100 | > 100 µM |  |  |  |  |  |  |  |  |  |  |  |  |
| S=c1nc(N2CCCCC2)ss1 | 33.3 | 30 | > 100 | 81.4 µM | 18 | 58.5 µM |  | 36.6 µM |  |  |  |  |  |  |  |  |  |  |  |  |
| COC(=O)C1C(OCc2ccccc2)C2CCC1(OC)C=C2C (centres undefined) | 80.6 | > 100 | > 100 | > 100 µM | > 100 | > 100 µM | > 100 | > 100 µM |  |  |  |  |  |  |  |  |  |  |  |  |
| CC1C(=O)O[C@H]2C1CC[C@@]1(C)[C@H](O)CC[C@@]13C[C@]2(O)OO3 (some centres undefined) | > 100 | > 100 | > 100 | > 100 µM | > 100 | > 100 µM |  |  |  |  |  |  |  |  |  |  |  |  |  |  |
| COc1cc(/C=C(\OC(C)=O)c2ccc3c(c2)OCO3)cc(OC)c1OC | 43.4 | > 100 | 66.8 | 98.6 µM | 76.6 | 33.1 µM | 50.2 | 38.8 µM |  |  |  | > 100 |  |  |  |  |  |  |  |  |
| CC[C@H](C)[C@@H]1OC(=O)[C@@H](C)[C@@H](CC)NC(=O)[C@H](C)NC(=O)C(C)(C)C(=O)[C@H](C)NC(=O)[C@H](Cc2ccc(OC)cc2)N(C)C(=O)[C@H](C(C)C)N(C)C(=O)CNC(=O)[C@H](CC(C)C)N(C)C(=O)CNC1=O (cyclo(A[X56]G[NMeL]G[NMeV][NMeY](Me)[X32])) | 0.784 | 3.94 |  | 0.657 µM and 0.0793 µM | 3.38 | 0.306 µM and 0.102 µM |  | 0.0508 µM and 0.126 µM | 7.04 | 0.28 | 0.0807 |  | 0.024 |  | 0.0263 | 0.0193 |  |  | 0.0239 | 0.0102 |
| CC/C=C/c1cc2cc[nH]c2c2c1C(C)C[C@@H]2C (some centres undefined) | 53.3 |  | > 100 | 55.9 µM | 53.4 | > 100 µM | 40.4 | 50.1 µM |  |  |  |  |  |  |  |  |  |  |  |  |
| O=C(c1ccc(Cl)cc1)c1ccc(OCCSCCCCCCCCCCSCCOc2ccc(C(=O)c3ccc(Cl)cc3)cc2)cc1 | > 100 | > 100 | > 100 | > 100 µM | > 100 | > 100 µM | > 100 |  |  |  |  |  |  |  |  |  |  |  |  |  |
| Cc1cc(=O)oc2cc(OS(C)(=O)=O)ccc12 |  | > 100 |  | > 100 µM | > 100 | > 100 µM | > 100 | > 100 µM | > 100 | > 100 |  |  |  |  |  |  |  |  |  |  |
| C=CC1=C(C)C2=NC1=CC1=NC(=CC3=C(C)C4=C(O)C(C(=O)OC)C(=C5NC(=C2)C(C)C5CCC(=O)OC)C4=N3)C(CC)=C1C (centres undefined) |  | > 100 | > 100 | > 100 µM | > 100 | > 100 µM | > 100 | > 100 µM | > 100 | > 100 |  |  |  |  |  |  |  |  |  |  |
| Cn1cnc([N+](=O)[O-])c1Sc1nnnn1-c1ccccc1 | 6.22 | 32.5 | > 100 | 39.7 µM | 52.6 | 33.7 µM | 7.35 | 24.9 µM |  |  |  |  |  |  |  |  |  |  |  |  |
| O=C(CC1C=CCS1(=O)=O)NCc1ccccc1 (centres undefined) | > 100 | > 100 | > 100 | > 100 µM |  | > 100 µM | > 100 | > 100 µM | > 100 | > 100 |  |  |  |  |  |  |  |  |  |  |
